In patent US9868707B2, “Small molecule agonists of neurotensin receptor 1” (SANFORD-BURNHAM MEDICAL RESEARCH INSTITUTE, priority 2012, dated 2018):
Like-named read-outs stand apart in the source and are kept apart here.

Biological target: NTR1 (Homo sapiens, UniProt P30989)
Assay: NTR1 high-content imaging (HCS) dose response, NTR1-U2OS cells
Assay type: cell-based
Parameters: host or cells: U2OS osteosarcoma
Details: n = 4 unless otherwise noted; for EC50: Ave. ± S.E.M., read-out: HCS NTR1 Potency EC50
From the text: The cell lines utilized in the high-content imaging assays, which include the NTR1-, NTR2-, and GPR35-U2OS osteosarcomas, were obtained from the laboratory of Dr. Lawrence Barak at the Duke University Medical Center. The media used in the culture of the cell lines, as well as the assays themselves, consisted of Minimum Essential Medium (15-010-CM) and L-glutamine (25-005-CL) from Cellgro/Mediatech (Manassas, Va.), fetal bovine serum (SH30396.03) from Hyclone (Logan, Utah), penicillin-streptomycin solution (PS-20) from Omega Scientific in Tarzana, Calif., G418 (ant-gn-1) from Invivogen (San Diego, Calif.), and zeocin (R250-01) from Invitrogen (Carlsbad, Calif.). Cell lines were cultured in T225 tissue culture flasks (431082) supplied by Corning (Corning, N.Y.). Additional reagents employed include Dulbecco's Phosphate-Buffered Saline (DPBS) (21-031CV) from Cellgro/Mediatech, Trypsin-EDTA 0.05% (25300) from Invitrogen, paraformaldehyde (30528954) from Acros Organics (Geel, Belgium), Hoechst 33342 (H3570) from Invitrogen. The high-content assays were run in 1536-well plates (29326) supplied by Aurora Biotechnology (Poway, Calif.) and utilized aluminum plate seals (T592100) from E&K Scientific (Santa Clara, Calif.).
The neurotensin 1 peptide (N6383) from Sigma-Aldrich (St. Louis, Mo.) was used as a positive control in the NTR1 primary HCS assay. For the NTR2 selectivity assay, the non-specific, small molecule 3-(4-fluorophenyl)-7,8-dimethoxy-5-(4-methylbenzyl)-5H-pyrazolo[4,3-c]quinolone which was synthesized internally was used as a positive control. The GPR35 selectivity screen utilized zaprinast (ALX430-020-M010) from Alexis Biochemicals (Farmingdale, N.Y.) as a control.
The high-content imaging based NTR1 primary screen in 1536-well format was utilized to assay the MLSMR library of chemical entities in the following manner. On day one, 4 uL of a cell suspension containing 350,000 NTR1-U2OS cells per mL is added to each well of a 1536-well assay plate. Cells are plated in MEM medium containing 2.5% Fetal Bovine Serum, 1% Penicillin/Streptomycin solution, 1% L-Glutamine, 400 ug/mL G418, and 200 ug/mL Zeocin. The assay plates are then incubated overnight at 37° C., under 5% CO2. Following the overnight incubation, a volume of 60 nL of the compounds at 2 mM in DMSO (final 20 μM, 1% DMSO) was transferred to columns 5-48 of the assay plates using a LabCyte Echo Liquid Handler. Next, 60 nL of DMSO were dispensed to columns 1-4, which served as the positive and neutral control wells. […] The assay plates were centrifuged on an Eppendorf 5810 centrifuge at 1000 rpm for 1 min to ensure even liquid levels in the wells of the assay plates. The assay plates were then returned to the incubator for 1 hour. Following the hour-long incubation at 37° C., the cells in each well were fixed with 4 uL of 6% paraformaldehyde added with a Multidrop Combi. The assay plates were centrifuged as before and incubated at room temperature for 1 hour. On the Kalypsys, plates were then aspirated down to 2.5 uL per well and washed twice with 11 uL per well of DPBS, followed by a final aspiration to 2.5 uL per well. On the Combi dispenser, 5 uL of 5 ug/mL Hoechst 33342 diluted in DPBS was added to each well of assay plates. The plates were again centrifuged as previously described, sealed, and incubated for at least 1 hour prior to being loaded on a PerkinElmer Opera QEHS.
Image acquisition was performed with a 45 plate capacity loader/stacker and the following settings: 40×0.6 NA air objective, acquisition camera set to 2-by-2 binning for an image size of 688 by 512 pixels, beta-arrestin-GFP acquired using 488 nm laser excitation and 540/75 nm emission filters, DAPI (nuclei) using 365 nm Xenon lamp excitation and 450/50 nm emission filters, 3 fields per well. Image analysis was performed using the Acapella Spot Detection Algorithm. For analysis settings and the metrics employed in the data analyses, please refer to supplemental information.

[1] = read-out: HCS NTR1 Potency Emax

Chain of NTR1 (P30989 whole entry, species assumed): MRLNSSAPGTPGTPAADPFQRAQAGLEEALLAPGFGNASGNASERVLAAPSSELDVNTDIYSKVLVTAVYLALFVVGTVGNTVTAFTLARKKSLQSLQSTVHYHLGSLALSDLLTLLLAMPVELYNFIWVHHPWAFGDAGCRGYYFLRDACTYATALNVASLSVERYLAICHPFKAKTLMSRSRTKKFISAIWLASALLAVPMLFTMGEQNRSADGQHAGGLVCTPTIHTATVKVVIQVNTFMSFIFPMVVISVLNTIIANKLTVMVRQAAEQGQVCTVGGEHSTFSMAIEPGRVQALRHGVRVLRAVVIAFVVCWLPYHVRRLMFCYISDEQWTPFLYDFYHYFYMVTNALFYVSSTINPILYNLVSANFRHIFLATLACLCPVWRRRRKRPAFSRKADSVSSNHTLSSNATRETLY

EC50	Emax [1]	Emax (heading: HCS NTR1 Potency Emax)	Structure (SMILES)
61.2 ± 5.2 µM	100%		COc1cc2nc(C3CCC3)nc(N3CCN(c4c(C)cccc4C)CC3)c2cc1OC [Compound 331, 2-cyclobutyl-4-(4-(2,6-dimethylphenyl)piperazin-1-yl)-6,7-dimethoxyquinazoline]
25.9 ± 13.7 µM	74.3%		COc1cc2nc(CCN3CCN(c4ccccc4OC)CC3)nc(N3CCN(c4ccccc4OC)CC3)c2cc1OC [Compound 319, 6,7-dimethoxy-4-(4-(2-methoxyphenyl)piperazin-1-yl)-2-(2-(4-(2-methoxyphenyl)piperazin-1-yl)ethyl)quinazoline]
14.2 ± 1.2 µM	96.9%		COc1cc2nc(CC3CC3)nc(N3CCN(c4ccccc4OC)CC3)c2cc1OC [Compound 317, 2-(cyclopropylmethyl)-6,7-dimethoxy-4-(4-(2-methoxyphenyl)piperazin-1-yl)quinazoline]
5.8 ± 1.5 µM	92.8%		COc1cc2nc(C3CCCC3)nc(N3CCN(c4ccccc4OC)CC3)c2cc1OC [Compound 316, 2-cyclopentyl-6,7-dimethoxy-4-(4-(2-methoxyphenyl)piperazin-1-yl)quinazoline]
10 ± 1.57 µM	102%		COc1ccc2nc(C3CCC3)nc(N3CCN(c4ccccc4OC)CC3)c2c1 [Compound 334, 2-cyclobutyl-6-methoxy-4-(4-(2-methoxyphenyl)piperazin-1-yl)quinazoline]
4.1 ± 0.5 µM	95.7%		COc1ccc2nc(C3CC3)nc(N3CCN(c4ccccc4OC)CC3)c2c1 [Compound 338, 2-cyclopropyl-6-methoxy-4-(4-(2-methoxyphenyl)piperazin-1-yl)quinazoline]
7.7 ± 1 µM	100%		COc1cc2nc(C(C)C)nc(N3CCN(c4ccccc4OC)CC3)c2cc1OC [Compound 312, 2-isopropyl-6,7-dimethoxy-4-(4-(2-methoxyphenyl)piperazin-1-yl)quinazoline]
33.7 ± 16.7 µM	87%		COc1ccccc1N1CCN(c2nc(C3CCC3)nc3cc4c(cc23)OCO4)CC1 [Compound 337, 6-cyclobutyl-8-(4-(2-methoxyphenyl)piperazin-1-yl)-[1,3]dioxolo[4,5-g]quinazoline]
14.9 ± 3.2 µM		91.6%	COc1cc2nc(C3CCC3)nc(N3CCN(c4ccccc4C)CC3)c2cc1OC [Compound 323, 2-cyclobutyl-6,7-dimethoxy-4-(4-(o-tolyl)piperazin-1-yl)quinazoline]
22.6 ± 3.9 µM	100%		COc1ccccc1N1CCN(c2nc(C3CCC3)nc3ccccc23)CC1 [Compound 336, 2-cyclobutyl-4-(4-(2-methoxyphenyl)piperazin-1-yl)quinazoline]
67.7 ± 5.5 µM	100%		COc1cc2nc(C3CC3)nc(N3CCN(C(=O)c4ccccc4OC)CC3)c2cc1OC [Compound 345, (4-(2-cyclopropyl-6,7-dimethoxyquinazolin-4-yl)piperazin-1-yl)(2-methoxyphenyl)methanone]
> 80 µM			COc1cc2nc(-c3ccccc3)nc(N3CCN(c4ccc(F)cc4)CC3)c2cc1OC [6,7-di-OMe; phenyl; 4-F, 2-phenyl-6,7-dimethoxy-4-(4-(4-fluorophenyl)piperazin-1-yl)quinazoline]
25.5 ± 1.7 µM	91.4%		COc1cc2nc(C3CCC3)nc(N3CCN(c4ccccn4)CC3)c2cc1OC [Compound 326, 2-cyclobutyl-6,7-dimethoxy-4-(4-(pyridin-2-yl)piperazin-1-yl)quinazoline]
7 ± 1 µM	100%		C=Cc1nc(N2CCN(c3ccccc3OC)CC2)c2cc(OC)c(OC)cc2n1 [Compound 314, 6,7-dimethoxy-4-(4-(2-methoxyphenyl)piperazin-1-yl)-2-vinylquinazoline]
20 ± 10.7 µM	78%		COc1cc2nc(-c3ccccc3)nc(N3CCN(c4ccccc4OC)CC3)c2cc1OC [6,7-di-OMe; phenyl; 2-OMe, 2-phenyl-6,7-dimethoxy-4-(4-(2-methoxyphenyl)piperazin-1-yl)quinazoline]
15.1 ± 1.5 µM	96.3%		COc1cc2nc(CC(C)C)nc(N3CCN(c4ccccc4OC)CC3)c2cc1OC [Compound 313, 2-isobutyl-6,7-dimethoxy-4-(4-(2-methoxyphenyl)piperazin-1-yl)quinazoline]
13.8 ± 3.4 µM	81.9%		COc1cc2nc(Cc3ccccc3)nc(N3CCN(c4ccccc4OC)CC3)c2cc1OC [Compound 309, 2-benzyl-6,7-dimethoxy-4-(4-(2-methoxyphenyl)piperazin-1-yl)quinazoline]
6.1 ± 0.4 µM	98.4%		CCOc1ccccc1N1CCN(c2nc(C3CC3)nc3cc(OC)c(OC)cc23)CC1 [Compound 339, 2-cyclopropyl-4-(4-(2-ethoxyphenyl)piperazin-1-yl)-6,7-dimethoxyquinazoline]
17.2 ± 1 µM	74.9%		COc1cccc(N2CCN(c3nc(C4CCC4)nc4cc(OC)c(OC)cc34)CC2)c1 [Compound 328, 2-cyclobutyl-6,7-dimethoxy-4-(4-(3-methoxyphenyl)piperazin-1-yl)quinazoline]
46.4 ± 17.6 µM	100%		COc1ccc(N2CCN(c3nc(C4CCC4)nc4cc(OC)c(OC)cc34)CC2)cc1 [Compound 329, 2-cyclobutyl-6,7-dimethoxy-4-(4-(4-methoxyphenyl)piperazin-1-yl)quinazoline]
19.8 ± 2.2 µM	100%		COc1cc2nc(C3CC3)nc(N3CCN(c4ccccc4Cl)CC3)c2cc1OC [Compound 340, 4-(4-(2-chlorophenyl)piperazin-1-yl)-2-cyclopropyl-6,7-dimethoxyquinazoline]
12.2 ± 2.5 µM	70.5%		COc1cc2nc(C3CCC3)nc(N3CCN(c4ccccc4Cl)CC3)c2cc1OC [Compound 325, 4-(4-(2-chlorophenyl)piperazin-1-yl)-2-cyclobutyl-6,7-dimethoxyquinazoline]
75.4 ± 1.1 µM	100%		COc1cc2nc(C3CCC3)nc(N3CCN(c4ccccc4[N+](=O)[O-])CC3)c2cc1OC [Compound 327, 2-cyclobutyl-6,7-dimethoxy-4-(4-(2-nitrophenyl)piperazin-1-yl)quinazoline]
17.7 ± 1 µM	97.2%		COc1cc2nc(C3CCC3)nc(N3CCN(c4ccccc4F)CC3)c2cc1OC [Compound 324, 2-cyclobutyl-4-(4-(2-fluorophenyl)piperazin-1-yl)-6,7-dimethoxyquinazoline]
16.6 ± 1.7 µM	100%		CCCc1nc(N2CCN(c3ccccc3OC)CC2)c2cc(OC)c(OC)cc2n1 [Compound 311, 6,7-dimethoxy-4-(4-(2-methoxyphenyl)piperazin-1-yl)-2-propylquinazoline]

Structure (SMILES)	EC50	Emax [1]	Emax (heading: HCS NTR1 Potency Emax)
CCc1nc(N2CCN(c3ccccc3OC)CC2)c2cc(OC)c(OC)cc2n1 [Compound 310, 2-ethyl-6,7-dimethoxy-4-(4-(2-methoxyphenyl)piperazin-1-yl)quinazoline]	42.6 ± 4.4 µM	100%	
COc1cc2nc(C3CC3)nc(N3CCN(C(=O)c4ccccc4)CC3)c2cc1OC [Compound 344, (4-(2-cyclopropyl-6,7-dimethoxyquinazolin-4-yl)piperazin-1-yl)(phenyl)methanone]	45.3 µM	100%	
COc1cc2nc(C3CC3)nc(N3CCN(Cc4ccc(C)cc4)CC3)c2cc1OC [Compound 342, 2-cyclopropyl-6,7-dimethoxy-4-(4-(4-methylbenzyl)piperazin-1-yl)quinazoline]	25 ± 3.2 µM		
